Laboratory results as given in patent publication US5047397A, “Linear analogs of atrial natriuretic peptides” (California Biotechnology Inc., priority 1988, dated 1991).
*1 amine or outer side, *2 acyl side, *3 side chain or, on linkers, in order; H or OH if unused. Where a SMILES comes first, the peptide text is derived from it. Bridges are numbered along the chain shown (N, C = ends). Where no end group is shown, it is not given here. [ ]: non-standard residue; d: D form. The star is where a group is joined. Acetyl(1-naphthyloxy) = O=C(COc1cccc2ccccc12)*; Acetyl(2-naphthyloxy) = O=C(COc1ccc2ccccc2c1)*; Acetyl(2-naphthyl) = O=C(Cc1ccc2ccccc2c1)*; Fmoc = O=C(OCC1c2ccccc2-c2ccccc21)*; X1 = O=C(Cc1ccc(N[*:1])cc1)[*:2]; 4Abz = Nc1ccc(C(=O)O)cc1; X9 = O=C(C(Cl)c1ccccc1)*; Aib = CC(C)(N)C(=O)O; Inp = O=C(O)C1CCNCC1; Ava = NCCCCC(=O)O

Target: T1, specific ANP receptor sites on BASM or BAE cells (Bos taurus, UniProt P10730)
T1 construct: specific receptor sites on BASM or BAE cells; endogenous in cells; host or cells: cultured BASM and BAE cells
T1 sequence (P10730 42-537): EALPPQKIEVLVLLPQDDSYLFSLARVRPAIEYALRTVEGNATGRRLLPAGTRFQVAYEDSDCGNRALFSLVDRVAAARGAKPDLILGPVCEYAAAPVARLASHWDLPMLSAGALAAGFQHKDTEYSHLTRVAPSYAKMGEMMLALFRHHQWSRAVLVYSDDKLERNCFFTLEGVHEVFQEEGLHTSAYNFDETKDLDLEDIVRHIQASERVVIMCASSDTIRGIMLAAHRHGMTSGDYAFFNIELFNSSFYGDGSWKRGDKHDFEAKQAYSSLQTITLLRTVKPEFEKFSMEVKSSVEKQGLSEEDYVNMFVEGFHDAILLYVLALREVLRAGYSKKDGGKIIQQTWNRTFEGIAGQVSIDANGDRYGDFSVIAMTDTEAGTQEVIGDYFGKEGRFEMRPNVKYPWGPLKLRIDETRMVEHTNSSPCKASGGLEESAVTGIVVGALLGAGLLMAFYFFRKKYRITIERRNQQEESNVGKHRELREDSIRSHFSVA
Experiment: Competitive displacement receptor binding of (125I)-rANP(126-150) on cultured cells
Parameters: species or system bovine
Conditions: for Ki(app): concentration of unlabeled peptide displacing 50% of maximal binding of 0.5 nM (125I)-rANP(126-150), BASM or BAE cells
From the text: Analogous "competitive displacement" receptor binding assays are considered commonplace in the art for examining specific ligand-receptor interactions.
Assuming these ANP analogs act at one or more ANP receptor sites, then increased receptor affinity should reflect increased biological potency.

Question: How did the “Ki(app)” value turn out when `CC[C@H](C)[C@H](NC(=O)[C@H](CCCNC(=N)N)NC(=O)[C@H](CC(=O)O)NC(=O)[C@@H](NC(=O)[C@H](CCCCN)NC(=O)CNC(=O)CNC(=O)Cc1ccc2ccccc2c1)[C@@H](C)CC)C(N)=O` [AP523, (2-NA)--G--G--K--I--D--R--I--NH2] ({Acetyl(2-naphthyl)}-GGKIDRI-NH2) was run?
Answer: The value was 0.0367 µM.

Question: Which “receptor binding / activity as judged by Ki, in words” value does the source give for “RIDRIG-NH2 [AP125, R--I--D--R--I--G--NH2]” here?
Answer: Its value is “do not”.

Question: And the “Ki(app)” value?
Answer: The value was greater than 0.2 µM.

Question: With `CC[C@H](C)[C@H](NC(=O)[C@H](CCCNC(=N)N)NC(=O)[C@H](CC(=O)O)NC(=O)[C@H](Cc1ccccc1)NC(=O)[C@H](CCCNC(=N)N)NC(=O)CNC(=O)CNC(=O)Cc1ccc2ccccc2c1)C(N)=O` [AP521, (2-NA)--G--G--R--F--D--R--I--NH2] ({Acetyl(2-naphthyl)}-GGRFDRI-NH2) as the molecule, how does the “receptor binding / activity as judged by Ki, in words” value read?
Answer: Its value is “very low, if any, activity”.

Question: What about the “Ki(app)” value of the same molecule?
Answer: The value was 0.4 µM.

Question: How did the “Ki(app)” value turn out when `CC[C@H](C)[C@H](NC(=O)[C@H](CCCNC(=N)N)NC(=O)[C@H](CC(=O)O)NC(=O)[C@@H](NC(=O)[C@H](CCCNC(=N)N)NC(=O)CNC(=O)CNC(=O)[C@@H](Cc1ccccc1)NC(=O)[C@H](C)N)[C@@H](C)CC)C(=O)NCC(=O)N[C@@H](C)C(N)=O` [AP151, A--F^ --G--G--R--I--D--R--I--G--A--NH2] (H-A[dF]GGRIDRIGA-NH2) was run?
Answer: Its value is 0.0396 µM.

Question: How did the “Ki(app)” value turn out when `CC[C@H](C)[C@H](NC(=O)[C@H](CCCNC(=N)N)NC(=O)[C@H](CC(=O)O)NC(=O)[C@@H](NC(=O)[C@H](CCCNC(=N)N)NC(=O)CNC(=O)CNC(=O)OCC1c2ccccc2-c2ccccc21)[C@@H](C)CC)C(=O)NCC(=O)N[C@@H](C)C(N)=O` [AP312, (FMOC)--G--G--R--I--D--R--I--G--A--NH2] (Fmoc-GGRIDRIGA-NH2) was run?
Answer: Its value is 0.00627 µM.

Question: Which “Ki(app)” value does the source give for `CC[C@H](C)[C@H](NC(=O)[C@H](CCCNC(=N)N)NC(=O)[C@H](CC(=O)O)NC(=O)[C@@H](NC(=O)[C@H](CCCNC(=N)N)NC(=O)CCCCNC(=O)COc1ccc2ccccc2c1)[C@@H](C)CC)C(N)=O` [AP307, (2-Naphthoxyacetyl)-NH(CH2)4 CO-R-I-D-R-I-NH2] ({Acetyl(2-naphthyloxy)-Ava}-RIDRI-NH2) here?
Answer: Its value is 0.0399 µM.

Question: How did the “Ki(app)” value turn out when `CC[C@H](C)[C@H](NC(=O)[C@H](CCCNC(=N)N)NC(=O)[C@H](CC(=O)O)NC(=O)[C@@H](NC(=O)[C@H](CCCNC(=N)N)NC(=O)CNC(=O)[C@@H](C)NC(=O)COc1ccc2ccccc2c1)[C@@H](C)CC)C(N)=O` [AP322, (2-NOA)--A^ --G--R--I--D--R--I--NH2] ({Acetyl(2-naphthyloxy)}-[dA]GRIDRI-NH2) was run?
Answer: Its value is greater than 0.1 µM.

Question: `CC[C@H](C)[C@H](NC(=O)[C@H](CCCNC(=N)N)NC(=O)[C@H](CC(=O)O)NC(=O)[C@@H](NC(=O)[C@H](CCCNC(=N)N)NC(=O)c1ccc(NC(=O)Cc2ccc3ccccc3c2)cc1)[C@@H](C)CC)C(N)=O` [AP560] ({Acetyl(2-naphthyl)-4Abz}-RIDRI-NH2) was tested. Which “Ki(app)” value did it give?
Answer: The value was 0.0688 µM.

Question: With `CC[C@H](C)[C@H](NC(=O)[C@H](CCCNC(=N)N)NC(=O)[C@H](CC(=O)O)NC(=O)[C@@H](NC(=O)[C@H](CCCNC(=N)N)NC(=O)C1CCN(C(=O)COc2ccc3ccccc3c2)CC1)[C@@H](C)CC)C(N)=O` [AP793] ({Acetyl(2-naphthyloxy)-Inp}-RIDRI-NH2) as the molecule, how does the “Ki(app)” value read?
Answer: Its value is 0.0768 µM.

Question: For `CC[C@H](C)[C@@H]1NC(=O)[C@H](CCCNC(=N)N)NC(=O)[C@H](CC(=O)O)NC(=O)[C@H]([C@@H](C)CC)NC(=O)[C@H](CCCNC(=N)N)NC(=O)CNC(=O)CNC(=O)[C@H](Cc2ccccc2)NC(=O)[C@@H](NC(=O)[C@H](CO)NC(=O)[C@H](CO)NC(=O)[C@@H](N)CCCNC(=N)N)CSSC[C@@H](C(=O)N[C@@H](CC(N)=O)C(=O)N[C@@H](CO)C(=O)N[C@@H](Cc2ccccc2)C(=O)N[C@@H](CCCNC(=N)N)C(=O)N[C@@H](Cc2ccc(O)cc2)C(=O)O)NC(=O)CNC1=O` [AP21] (H-RSSCFGGRIDRIGCNSFRY-OH; disulfide 4-14), which Ki (Table 2A, unit not given, in nM) is on record?
Answer: The Ki was 15.15.

Question: `CC[C@H](C)[C@H](NC(=O)[C@H](CCCNC(=N)N)NC(=O)[C@H](CC(=O)O)NC(=O)[C@@H](NC(=O)[C@H](CCCCN)NC(=O)Cc1ccc(NC(=O)Cc2ccc3ccccc3c2)cc1)[C@@H](C)CC)C(N)=O` [AP800] ({Acetyl(2-naphthyl)}-[X1]KIDRI-NH2) was tested. Which “Ki(app)” value did it give?
Answer: The value was 0.0029 µM.

Question: `CC[C@H](C)[C@H](NC(=O)[C@H](CCCNC(=N)N)NC(=O)[C@H](CC(=O)O)NC(=O)[C@@H](NC(=O)[C@H](CCCNC(=N)N)NC(=O)CNC(=O)CNC(=O)Cc1ccc2ccccc2c1)[C@@H](C)CC)C(=O)NCC(=O)NC(C)(C)C(N)=O` [AP525, (2-NA)--G--G--R--I--D--R--I--G--(Aib)--NH2] ({Acetyl(2-naphthyl)}-GGRIDRIG[Aib]-NH2) was tested. Which “Ki(app)” value did it give?
Answer: Its value is 0.02275 µM.

Question: With `CC[C@H](C)[C@H](NC(=O)[C@H](CCCNC(=N)N)NC(=O)[C@H](CC(=O)O)NC(=O)[C@@H](NC(=O)[C@@H](CCCNC(=N)N)NC(=O)CNC(=O)CNC(=O)[C@H](Cc1ccccc1)NC(=O)[C@H](C)N)[C@@H](C)CC)C(=O)NCC(=O)N[C@@H](C)C(N)=O` [AP301, A--F--G--G--R^ --I--D--R--I--G--A--NH2] (H-AFGG[dR]IDRIGA-NH2) as the molecule, how does the “Ki(app)” value read?
Answer: The value was greater than 0.2 µM.

Question: With `CC[C@H](C)[C@H](NC(=O)[C@H](CCCNC(=N)N)NC(=O)[C@H](CC(=O)O)NC(=O)[C@@H](NC[C@H](CCCCN)NC(=O)Cc1ccc(NC(=O)Cc2ccc3ccccc3c2)cc1)[C@@H](C)CC)C(N)=O` [AP806] as the molecule, how does the “Ki(app)” value read?
Answer: Its value is 0.014 µM.

Question: What does the source list for `CC[C@H](C)[C@H](NC(=O)[C@H](CCCNC(=N)N)NC(=O)CNC(=O)CNC(=O)Cc1ccc2ccccc2c1)C(=O)N[C@@H](CC(=O)O)C(=O)N[C@@H](CCCNC(=N)N)C(=O)N1CCC[C@H]1C(N)=O` [AP519, (2-NA)--G--G--R--I--D--R--P--NH2] ({Acetyl(2-naphthyl)}-GGRIDRP-NH2)?
Answer: receptor binding / activity as judged by Ki, in words: very low, if any, activity; Ki(app): > 0.4 µM

Question: For `CC[C@H](C)[C@H](NC(=O)[C@H](CCCNC(=N)N)NC(=O)CNC(=O)CNC(=O)Cc1ccc2ccccc2c1)C(=O)N[C@@H](CC(=O)O)C(=O)N[C@@H](CCCNC(=N)N)C(=O)N[C@@H](CC(C)C)C(N)=O` [AP332, (2-NA)--G--G--R--I--D--R--L--NH2] ({Acetyl(2-naphthyl)}-GGRIDRL-NH2), which “Ki(app)” value is on record?
Answer: The value was 0.0442 µM.

Question: With `CC[C@H](C)[C@H](NC(=O)[C@H](CCCNC(=N)N)NC(=O)[C@H](CC(=O)O)NC(=O)[C@@H](NC(=O)[C@H](CCCNC(=N)N)NC(=O)CNC(=O)CNC(=O)COc1cccc2ccccc12)[C@@H](C)CC)C(N)=O` [AP316, (1-NOA)--G--G--R--I--D--R--I--NH2] ({Acetyl(1-naphthyloxy)}-GGRIDRI-NH2) as the molecule, how does the “Ki(app)” value read?
Answer: The value was 0.0504 µM.

Question: For `CC[C@H](C)[C@H](NC(=O)[C@H](CCCNC(=N)N)NC(=O)[C@H](CC(=O)O)NC(=O)[C@@H](NC(=O)[C@H](CCCNC(=N)N)NC(=O)Cc1ccc(NC(=O)C(Cl)c2ccccc2)cc1)[C@@H](C)CC)C(N)=O` (stereo partly drawn) [AP817] (X9-[X1]RIDRI-NH2), which “Ki(app)” value is on record?
Answer: The value was 0.0211 µM.
